Laboratory results: paper PMC4870834 (Biochemistry, 2015)
pKd: −log10 of the molar value.

Assays:
Assay in all cases: intrinsic fluorescence titration
Format in all cases: binding
[1] = molecular target: SULT1A1 (Homo sapiens, UniProt P50225, V243G)
[2] = molecular target: SULT1A1 (Homo sapiens, UniProt P50225)
[3] = molecular target: SULT1A1 (Homo sapiens, UniProt P50225, I89A)
[4] = molecular target: SULT1A1 (Homo sapiens, UniProt P50225, D249S)
[5] = molecular target: SULT1A1 (Homo sapiens, UniProt P50225, F255A)
Chain of SULT1A1 (Homo sapiens, UniProt P50225, F255A) (P50225 whole entry F255A): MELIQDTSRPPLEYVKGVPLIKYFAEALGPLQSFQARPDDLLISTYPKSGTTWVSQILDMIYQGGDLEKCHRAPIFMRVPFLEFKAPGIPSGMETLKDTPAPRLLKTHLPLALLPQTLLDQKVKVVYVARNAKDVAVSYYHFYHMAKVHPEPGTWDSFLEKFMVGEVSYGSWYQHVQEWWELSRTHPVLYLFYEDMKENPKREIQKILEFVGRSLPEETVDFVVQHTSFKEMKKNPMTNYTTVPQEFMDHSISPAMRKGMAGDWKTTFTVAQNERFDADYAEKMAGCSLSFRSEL

Chain of SULT1A1 (Homo sapiens, UniProt P50225, V243G) (P50225 whole entry V243G): as the sequence (P50225 whole entry F255A) above, with V243G, A255F counted along it
Chain of SULT1A1 (Homo sapiens, UniProt P50225) (P50225 whole entry): as the sequence (P50225 whole entry F255A) above, with A255F counted along it
Chain of SULT1A1 (Homo sapiens, UniProt P50225, I89A) (P50225 whole entry I89A): as the sequence (P50225 whole entry F255A) above, with I89A, A255F counted along it
Chain of SULT1A1 (Homo sapiens, UniProt P50225, D249S) (P50225 whole entry D249S): as the sequence (P50225 whole entry F255A) above, with D249S, A255F counted along it

Nc1ncnc2c1ncn2[C@@H]1O[C@H](COP(=O)(O)O)[C@@H](OP(=O)(O)O)[C@H]1O [PAP]
pKd [1]: 6.55
pKd [2]: 6.57
pKd [3]: 6.51
pKd [4]: 6.52
pKd [5]: 6.57

C[C@]12CC[C@@H]3c4ccc(O)cc4C[C@@H](CCCCCCCCC[S+]([O-])CCCC(F)(F)C(F)(F)F)[C@H]3[C@@H]1CC[C@@H]2O (stereo partly shown) [fulvestrant]
pKd [1]: 5.89
pKd [2]: 5.77
pKd [3]: 5.96
pKd [4]: 5.80
pKd [5]: 5.82

Oc1ccc2ccccc2c1 [2-Nap]
pKd [1]: 5.66
pKd [2]: 5.82
pKd [3]: 5.74
pKd [4]: 5.66
pKd [5]: 5.70

C[C@]12CC[C@@H]3c4ccc(O)cc4CC[C@H]3[C@@H]1CC[C@@H]2O [E2]
pKd [1]: 6.05
pKd [3]: 5.82
pKd [4]: 6.05
pKd [5]: 6.05
